Key:
[1] = test system: CKD model animals (adriamycin-treated Lewis rats); experiment: Experiment of in vivo distribution in CKD models; settings: 100 minutes after administration
Description: (§1) Adriamycin (from Wako Pure Chemical Industries, Ltd., 7.5 mg/kg) was administered to 13 Lewis rats (male, 8-week-old, available from Japan SLC, Inc.) via the tail vein, and urinary protein was measured in accordance with the Bradford method on day 13 after the administration, for 11 cases excluding two dead cases. Of these, four cases having a high urinary protein level were selected as CKD model animals, and used in the below-described examples on day 14 after the administration of adriamycin.
(§2) After the completion of the PET imaging in Example 2, these rats were placed under anesthesia until 100 minutes after the administration, and were sacrificed by exsanguination. Then, the left and right kidneys, blood, brain, lung, heart, liver, spleen, stomach, small intestine, large intestine, adrenal gland, muscles, bones, fat around the kidneys, urine, and the remaining whole body were extracted, and weights and amounts of radioactivity were measured. Student's t-test was used for statistical analysis of the results.
as §2, with “Three cases from each of” for “After”, “groups that underwent” for “completion of”, “imaging after 80 minutes from the administration” for “imaging”, “5, as well as one case from each of the groups that had not undergone PET imaging,” for “2, these rats”

[2] = test system: CKD model animals (adriamycin-treated Lewis rats), kidneys excluding the renal pelvis; experiment: PET imaging (static, SUV) in CKD models; assay type: in vivo
Description: as §1
(§3) ^18F-HIC101 (radiochemical purity: 84.2%) was administered to the four CKD models prepared in Example 1 at 18.6±0.9 MBq/rat and to four healthy models at 17.0±2.7 MBq/rat, and after 80 minutes from the administration, static imaging was performed using a PET system for animals (eXplore Vista from GE). The collection conditions were 10 minutes at an energy window of 250 to 700 keV. The collected data were reconstructed and imaged using the 3D-OSEM method. From the images, the average of maximum values of SUV (standardized uptake value) of the kidneys (the region of interest (ROI) was set excluding the renal pelvis) and the average value of SUV of normal tissue in each slice were measured. Based on these values, the lesion-to-normal tissue ratio and the normal kidney-to-normal tissue ratio were used for evaluation. Student's t-test was used for statistical analysis of the measured results.
(§4) ^18F-FMISO (radiochemical purity: 96% or more) was administered to the four CKD models prepared in Example 1 at 18.7±1.1 MBq/rat and to four healthy models at 19.5±0.69 MBq/rat, and after 80 minutes from the administration, static imaging was performed using a PET system for animals (eXplore Vista from GE). One case each from each of the groups was placed under anesthesia again after the PET imaging, and imaging was performed after 180 minutes from the administration. The collection conditions were 10 minutes at an energy window of 250 to 700 keV, and the collected data were reconstructed and imaged using the 3D-OSEM method. From the images, the average of maximum values of SUV of the kidneys (the region of interest (ROI) was set excluding the renal pelvis) and the average value of SUV of normal tissue in each slice were measured. Based on these values, the lesion-to-normal tissue ratio and the normal kidney-to-normal tissue ratio were used for evaluation. Student's t-test was used for statistical analysis of the measured results.

[3] = test system: healthy models (physiological saline-treated Lewis rats); experiment: Experiment of in vivo distribution in healthy models; settings: healthy model; 100 minutes after administration
Description: (§5) As healthy models, four cases prepared by administering an equivalent amount of physiological saline instead of adriamycin were used.
as §2
as §2, with “Three cases from each of” for “After”, “groups that underwent” for “completion of”, “imaging after 80 minutes from the administration” for “imaging”, “5, as well as one case from each of the groups that had not undergone PET imaging,” for “2, these rats”

[4] = test system: healthy models (physiological saline-treated Lewis rats), kidneys excluding the renal pelvis; experiment: PET imaging (static, SUV) in healthy models; assay type: in vivo
Description: as §5, §3, §4

[5] = CKD model group, PET after 80 min from administration
[6] = CKD model group, PET after 80 min from administration, ROI excluding renal pelvis
[7] = CKD model, one case, PET after 180 min from administration
[8] = healthy model group, PET after 80 min from administration
[9] = healthy model group, PET after 80 min from administration, ROI excluding renal pelvis
[10] = healthy model, one case, PET after 180 min from administration

O=[N+]([O-])c1nccn1CC(O)C[18F] (stereo not shown) [^18F-FMISO, 1-[^18F]fluoro-3-(2-nitro-1H-imidazol-1-yl)-2-propanol]
In vivo distribution (radioactivity uptake), Blood [1]: 0.44 ± 0.02 | In vivo distribution (radioactivity uptake), Heart [1]: 0.53 ± 0.01 | In vivo distribution (radioactivity uptake), Kidney (Left) [1]: 1.08 ± 0.28 | In vivo distribution (radioactivity uptake), Kidney (Right) [1]: 1.09 ± 0.29 | In vivo distribution (radioactivity uptake), Large Intestine [1]: 1.14 ± 0.10 | In vivo distribution (radioactivity uptake), Liver [1]: 0.89 ± 0.28 | In vivo distribution (radioactivity uptake), Lung [1]: 0.48 ± 0.02 | In vivo distribution (radioactivity uptake), Muscles [1]: 0.47 ± 0.02 | In vivo distribution (radioactivity uptake), Small Intestine [1]: 1.54 ± 0.67 | In vivo distribution (radioactivity), Urine [1]: 2.60 ± 2.16 % ID | Normal Tissue SUV Average Value [2, 5]: 0.94 ± 0.11 | Renal Tissue (Lesion or Normal)-to-Normal Tissue Ratio, Left [2, 5]: 2.11 ± 0.14 | Renal Tissue (Lesion or Normal)-to-Normal Tissue Ratio, Right [2, 5]: 2.22 ± 0.10 | Renal Tissue SUV Maximum Value, Left [2, 5]: 1.97 ± 0.15 | Renal Tissue SUV Maximum Value, Right [2, 6]: 2.08 ± 0.22 | Normal Tissue SUV Average Value [2, 7]: 0.87 | Renal Tissue (Lesion or Normal)-to-Normal Tissue Ratio, Left [2, 7]: 3.17 | Renal Tissue (Lesion or Normal)-to-Normal Tissue Ratio, Right [2, 7]: 2.87 | Renal Tissue SUV Maximum Value, Left [2, 7]: 2.77 | Renal Tissue SUV Maximum Value, Right [2, 7]: 2.51 | Uptake in renal cortex versus renal pelvis ([2]; PET images after 180 minutes compared with after 80 minutes from administration): a tendency toward a higher uptake in the renal cortex than in the renal pelvis | Change of SUV maximum value (ROI analysis) ([2]; after 180 minutes versus after 80 minutes from administration): a tendency for the SUV maximum value to increase more than that after 80 minutes from the administration | Uptake into renal tissue excluding the renal pelvis, CKD models versus healthy models ([2]; summary of Examples 2 to 6): uptaken into the renal tissue excluding the renal pelvis in the CKD models significantly, compared with the healthy models | In vivo distribution (radioactivity uptake), Blood [3]: 0.30 ± 0.02 | In vivo distribution (radioactivity uptake), Heart [3]: 0.34 ± 0.02 | In vivo distribution (radioactivity uptake), Kidney (Left) [3]: 0.53 ± 0.03 | In vivo distribution (radioactivity uptake), Kidney (Right) [3]: 0.55 ± 0.03 | In vivo distribution (radioactivity uptake), Large Intestine [3]: 1.52 ± 0.15 | In vivo distribution (radioactivity uptake), Liver [3]: 0.50 ± 0.04 | In vivo distribution (radioactivity uptake), Lung [3]: 0.31 ± 0.02 | In vivo distribution (radioactivity uptake), Muscles [3]: 0.30 ± 0.02 | In vivo distribution (radioactivity uptake), Small Intestine [3]: 0.74 ± 0.11 | In vivo distribution (radioactivity), Urine [3]: 9.50 ± 1.75 % ID | Normal Tissue SUV Average Value [4, 8]: 0.89 ± 0.03 | Renal Tissue (Lesion or Normal)-to-Normal Tissue Ratio, Left [4, 8]: 1.95 ± 0.05 | Renal Tissue (Lesion or Normal)-to-Normal Tissue Ratio, Right [4, 8]: 1.89 ± 0.13 | Renal Tissue SUV Maximum Value, Left [4, 8]: 1.74 ± 0.08 | Renal Tissue SUV Maximum Value, Right [4, 9]: 1.68 ± 0.14 | Normal Tissue SUV Average Value [4, 10]: 0.72 | Renal Tissue (Lesion or Normal)-to-Normal Tissue Ratio, Left [4, 10]: 2.31 | Renal Tissue (Lesion or Normal)-to-Normal Tissue Ratio, Right [4, 10]: 2.26 | Renal Tissue SUV Maximum Value, Left [4, 10]: 1.67 | Renal Tissue SUV Maximum Value, Right [4, 10]: 1.63

O=[N+]([O-])c1nccn1CC(CO)(CO)C[18F] [^18F-HIC101, 2-[^18F]fluoromethyl-2-((2-nitro-1H-imidazol-1-yl)methyl)-1,3-propanediol]
In vivo distribution (radioactivity uptake), Blood [1]: 0.16 ± 0.04 | In vivo distribution (radioactivity uptake), Heart [1]: 0.18 ± 0.04 | In vivo distribution (radioactivity uptake), Kidney (Left) [1]: 2.11 ± 0.44 | In vivo distribution (radioactivity uptake), Kidney (Right) [1]: 2.60 ± 0.58 | In vivo distribution (radioactivity uptake), Large Intestine [1]: 3.17 ± 0.08 | In vivo distribution (radioactivity uptake), Liver [1]: 0.34 ± 0.05 | In vivo distribution (radioactivity uptake), Lung [1]: 0.18 ± 0.05 | In vivo distribution (radioactivity uptake), Muscles [1]: 0.26 ± 0.04 | In vivo distribution (radioactivity uptake), Small Intestine [1]: 0.25 ± 0.82 | In vivo distribution (radioactivity), Urine [1]: 29.9 ± 14.9 % ID | Normal Tissue SUV Average Value [2, 5]: 0.46 ± 0.04^$ | Renal Tissue (Lesion or Normal)-to-Normal Tissue Ratio, Left [2, 5]: 11.59 ± 1.88 | Renal Tissue (Lesion or Normal)-to-Normal Tissue Ratio, Right [2, 5]: 11.33 ± 1.57 | Renal Tissue SUV Maximum Value, Left [2, 5]: 5.25 ± 0.55 | Renal Tissue SUV Maximum Value, Right [2, 6]: 5.17 ± 0.70 | SUV maximum value of renal tissue in the example shown in FIG. 1 ([2]; MIP PET image of FIG. 1, after 80 minutes from administration): 10 | SUV maximum value of the CKD model examined for HIF-1α expression, (left) ([2]; individual CKD model of FIG. 3, (left)): 4.30 | SUV maximum value of the CKD model examined for HIF-1α expression, (right) ([2]; individual CKD model of FIG. 3, (right)): 5.12 | Comparison of uptake in the CKD models between the two agents ([2]; summary of Examples 2 to 6): higher than the uptake of ^18F-FMISO | Uptake into renal tissue excluding the renal pelvis, CKD models versus healthy models ([2]; summary of Examples 2 to 6): uptaken into the renal tissue excluding the renal pelvis in the CKD models significantly, compared with the healthy models | In vivo distribution (radioactivity uptake), Blood [3]: 0.08 ± 0.03 | In vivo distribution (radioactivity uptake), Heart [3]: 0.09 ± 0.03 | In vivo distribution (radioactivity uptake), Kidney (Left) [3]: 1.17 ± 0.61 | In vivo distribution (radioactivity uptake), Kidney (Right) [3]: 1.01 ± 0.24 | In vivo distribution (radioactivity uptake), Large Intestine [3]: 0.32 ± 0.44 | In vivo distribution (radioactivity uptake), Liver [3]: 0.23 ± 0.06 | In vivo distribution (radioactivity uptake), Lung [3]: 0.08 ± 0.03 | In vivo distribution (radioactivity uptake), Muscles [3]: 0.09 ± 0.03 | In vivo distribution (radioactivity uptake), Small Intestine [3]: 4.50 ± 0.70 | In vivo distribution (radioactivity), Urine [3]: 34.4 ± 23.3 % ID | Normal Tissue SUV Average Value [4, 8]: 0.37 ± 0.06 | Renal Tissue (Lesion or Normal)-to-Normal Tissue Ratio, Left [4, 8]: 3.69 ± 0.37 | Renal Tissue (Lesion or Normal)-to-Normal Tissue Ratio, Right [4, 8]: 3.77 ± 0.66 | Renal Tissue SUV Maximum Value, Left [4, 8]: 1.37 ± 0.28 | Renal Tissue SUV Maximum Value, Right [4, 9]: 1.42 ± 0.43 | SUV maximum value of the healthy model examined for HIF-1α expression ([4]; individual healthy model of FIG. 3): 1.06
